Data reported in paper doi:10.1101/2021.04.08.439011v1 (biorxiv, 2021).

Assays:
Settings in all cases: 1 µM; binder
[1] = target: BMPR1B (Homo sapiens, UniProt O00238)
[2] = target: CASK (Homo sapiens, UniProt O14936)
[3] = target: CDC42BPG (Homo sapiens, UniProt Q6DT37)
[4] = target: CDK8 (Homo sapiens, UniProt P49336)
[5] = target: EGFR(G719S) (Homo sapiens, UniProt P00533, G719S)
[6] = target: EPHA4 (Homo sapiens, UniProt P54764)
[7] = target: EPHB1 (Homo sapiens, UniProt P54762)
[8] = target: ERBB2 (Homo sapiens, UniProt P04626)
[9] = target: FGFR2 (Homo sapiens, UniProt P21802)
[10] = target: FLT3-autoinhibited (Homo sapiens, UniProt P36888)
[11] = target: HIPK3 (Homo sapiens, UniProt Q9H422)
[12] = target: JNK1 (Homo sapiens, UniProt P45983)
[13] = target: LKB1 (Homo sapiens, UniProt Q15831)
[14] = target: MAP4K2 (Homo sapiens, UniProt Q12851)
[15] = target: MEK2 (Homo sapiens, UniProt P36507)
[16] = target: MINK (Homo sapiens, UniProt Q8N4C8)
[17] = target: MKK7 (Homo sapiens, UniProt O14733)
[18] = target: MYLK (Homo sapiens, UniProt Q15746)
[19] = target: PDGFRA (Homo sapiens, UniProt P16234)
[20] = target: PHKG2 (Homo sapiens, UniProt P15735)
[21] = target: PIK3CA(E545K) (Homo sapiens, UniProt P42336, E545K)
[22] = target: PIK3CA(H1047Y) (Homo sapiens, UniProt P42336, H1047Y)
[23] = target: RAF1 (Homo sapiens, UniProt P04049)
[24] = target: RIOK1 (Homo sapiens, UniProt Q9BRS2)
[25] = target: ROCK2 (Homo sapiens, UniProt O75116)
[26] = target: SIK2 (Homo sapiens, UniProt Q9H0K1)
[27] = target: TNK1 (Homo sapiens, UniProt Q13470)
[28] = target: TSSK1B (Homo sapiens, UniProt Q9BXA7)
[29] = target: ULK2 (Homo sapiens, UniProt Q8IYT8)
[30] = target: YSK1 (Homo sapiens, UniProt O00506)

MINK, sequence (Q8N4C8 whole entry): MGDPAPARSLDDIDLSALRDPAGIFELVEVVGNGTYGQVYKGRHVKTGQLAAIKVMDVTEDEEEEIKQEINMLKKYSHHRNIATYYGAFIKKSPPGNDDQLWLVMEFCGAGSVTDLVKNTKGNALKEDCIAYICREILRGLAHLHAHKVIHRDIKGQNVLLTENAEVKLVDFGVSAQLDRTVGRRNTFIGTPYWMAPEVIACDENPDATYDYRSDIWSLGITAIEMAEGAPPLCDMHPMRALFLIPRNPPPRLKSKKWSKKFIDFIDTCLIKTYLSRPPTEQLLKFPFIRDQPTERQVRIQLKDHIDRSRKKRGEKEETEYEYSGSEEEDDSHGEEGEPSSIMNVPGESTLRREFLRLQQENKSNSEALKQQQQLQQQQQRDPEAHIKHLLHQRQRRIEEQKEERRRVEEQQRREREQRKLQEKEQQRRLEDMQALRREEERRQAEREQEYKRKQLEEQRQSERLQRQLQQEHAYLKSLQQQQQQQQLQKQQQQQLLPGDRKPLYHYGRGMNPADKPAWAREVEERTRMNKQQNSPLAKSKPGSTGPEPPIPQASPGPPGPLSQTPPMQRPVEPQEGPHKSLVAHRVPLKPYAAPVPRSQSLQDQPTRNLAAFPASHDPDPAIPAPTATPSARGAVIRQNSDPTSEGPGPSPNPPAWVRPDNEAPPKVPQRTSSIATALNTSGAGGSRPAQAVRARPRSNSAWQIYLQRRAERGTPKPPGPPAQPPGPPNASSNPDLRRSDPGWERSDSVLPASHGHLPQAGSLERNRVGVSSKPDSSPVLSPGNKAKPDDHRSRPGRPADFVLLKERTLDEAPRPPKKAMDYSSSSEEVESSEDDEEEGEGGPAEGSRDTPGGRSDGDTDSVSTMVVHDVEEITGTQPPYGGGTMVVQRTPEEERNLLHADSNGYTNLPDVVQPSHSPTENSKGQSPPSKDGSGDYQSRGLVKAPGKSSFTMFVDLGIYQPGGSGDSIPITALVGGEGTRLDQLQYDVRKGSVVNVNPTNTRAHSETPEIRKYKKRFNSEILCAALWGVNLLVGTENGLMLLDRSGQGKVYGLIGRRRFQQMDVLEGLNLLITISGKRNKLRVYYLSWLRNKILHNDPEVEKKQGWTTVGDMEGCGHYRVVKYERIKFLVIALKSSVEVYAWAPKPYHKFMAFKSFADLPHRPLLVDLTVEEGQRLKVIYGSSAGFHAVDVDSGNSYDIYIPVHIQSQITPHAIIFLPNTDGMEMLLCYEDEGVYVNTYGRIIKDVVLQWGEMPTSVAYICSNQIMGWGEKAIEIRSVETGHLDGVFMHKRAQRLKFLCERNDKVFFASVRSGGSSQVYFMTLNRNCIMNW
MEK2, sequence (P36507 whole entry): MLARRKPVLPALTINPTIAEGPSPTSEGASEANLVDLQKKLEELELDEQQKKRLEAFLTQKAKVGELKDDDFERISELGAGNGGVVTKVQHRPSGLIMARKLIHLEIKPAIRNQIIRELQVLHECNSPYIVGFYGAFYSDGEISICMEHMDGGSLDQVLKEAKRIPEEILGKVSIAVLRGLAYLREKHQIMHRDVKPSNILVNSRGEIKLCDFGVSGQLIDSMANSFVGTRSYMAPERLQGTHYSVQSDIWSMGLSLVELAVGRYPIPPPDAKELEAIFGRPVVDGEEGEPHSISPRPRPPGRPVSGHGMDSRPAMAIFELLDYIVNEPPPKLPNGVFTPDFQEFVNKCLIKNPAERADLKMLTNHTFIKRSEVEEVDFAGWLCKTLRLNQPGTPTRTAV
PIK3CA(E545K), sequence (P42336 whole entry E545K): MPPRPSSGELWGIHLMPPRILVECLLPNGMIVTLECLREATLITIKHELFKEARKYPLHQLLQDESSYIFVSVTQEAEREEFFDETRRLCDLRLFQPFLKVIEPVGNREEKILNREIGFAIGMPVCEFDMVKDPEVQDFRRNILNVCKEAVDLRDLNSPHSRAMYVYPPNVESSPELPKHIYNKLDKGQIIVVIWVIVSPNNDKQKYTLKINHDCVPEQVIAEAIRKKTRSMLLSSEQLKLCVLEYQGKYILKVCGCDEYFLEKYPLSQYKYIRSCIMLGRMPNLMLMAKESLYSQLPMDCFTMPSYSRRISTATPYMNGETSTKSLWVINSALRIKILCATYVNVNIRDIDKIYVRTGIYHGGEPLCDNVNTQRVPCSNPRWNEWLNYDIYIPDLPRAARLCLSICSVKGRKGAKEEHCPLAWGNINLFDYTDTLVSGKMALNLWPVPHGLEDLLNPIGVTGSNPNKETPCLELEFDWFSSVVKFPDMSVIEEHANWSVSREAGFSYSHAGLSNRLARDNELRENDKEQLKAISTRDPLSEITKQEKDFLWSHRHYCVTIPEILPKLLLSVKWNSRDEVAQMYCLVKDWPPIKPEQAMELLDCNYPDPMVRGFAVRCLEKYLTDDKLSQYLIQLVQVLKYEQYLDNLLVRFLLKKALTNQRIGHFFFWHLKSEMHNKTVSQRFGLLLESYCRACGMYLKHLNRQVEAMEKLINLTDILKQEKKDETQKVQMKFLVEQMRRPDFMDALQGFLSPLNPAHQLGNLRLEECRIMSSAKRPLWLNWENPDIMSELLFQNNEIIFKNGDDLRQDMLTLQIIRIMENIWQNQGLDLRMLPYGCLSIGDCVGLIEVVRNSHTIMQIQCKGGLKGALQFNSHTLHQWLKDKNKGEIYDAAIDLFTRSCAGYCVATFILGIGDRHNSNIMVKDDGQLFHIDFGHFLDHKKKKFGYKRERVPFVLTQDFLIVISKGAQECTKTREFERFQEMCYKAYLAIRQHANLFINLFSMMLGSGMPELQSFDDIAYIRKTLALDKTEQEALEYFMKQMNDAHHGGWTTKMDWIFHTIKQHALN
BMPR1B, sequence (O00238 whole entry): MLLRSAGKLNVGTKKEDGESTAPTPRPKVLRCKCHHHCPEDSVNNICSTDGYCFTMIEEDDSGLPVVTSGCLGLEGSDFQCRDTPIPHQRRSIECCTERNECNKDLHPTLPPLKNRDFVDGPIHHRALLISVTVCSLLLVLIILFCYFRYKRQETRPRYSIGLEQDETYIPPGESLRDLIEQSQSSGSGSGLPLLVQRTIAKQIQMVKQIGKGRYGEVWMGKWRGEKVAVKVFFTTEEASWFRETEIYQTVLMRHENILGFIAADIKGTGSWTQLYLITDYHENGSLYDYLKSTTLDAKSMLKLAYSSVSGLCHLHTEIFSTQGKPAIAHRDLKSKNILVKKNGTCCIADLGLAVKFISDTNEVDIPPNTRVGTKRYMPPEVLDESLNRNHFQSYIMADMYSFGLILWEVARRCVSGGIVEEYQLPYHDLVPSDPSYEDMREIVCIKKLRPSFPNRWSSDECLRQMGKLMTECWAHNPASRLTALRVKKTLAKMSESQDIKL
EPHA4, sequence (P54764 whole entry): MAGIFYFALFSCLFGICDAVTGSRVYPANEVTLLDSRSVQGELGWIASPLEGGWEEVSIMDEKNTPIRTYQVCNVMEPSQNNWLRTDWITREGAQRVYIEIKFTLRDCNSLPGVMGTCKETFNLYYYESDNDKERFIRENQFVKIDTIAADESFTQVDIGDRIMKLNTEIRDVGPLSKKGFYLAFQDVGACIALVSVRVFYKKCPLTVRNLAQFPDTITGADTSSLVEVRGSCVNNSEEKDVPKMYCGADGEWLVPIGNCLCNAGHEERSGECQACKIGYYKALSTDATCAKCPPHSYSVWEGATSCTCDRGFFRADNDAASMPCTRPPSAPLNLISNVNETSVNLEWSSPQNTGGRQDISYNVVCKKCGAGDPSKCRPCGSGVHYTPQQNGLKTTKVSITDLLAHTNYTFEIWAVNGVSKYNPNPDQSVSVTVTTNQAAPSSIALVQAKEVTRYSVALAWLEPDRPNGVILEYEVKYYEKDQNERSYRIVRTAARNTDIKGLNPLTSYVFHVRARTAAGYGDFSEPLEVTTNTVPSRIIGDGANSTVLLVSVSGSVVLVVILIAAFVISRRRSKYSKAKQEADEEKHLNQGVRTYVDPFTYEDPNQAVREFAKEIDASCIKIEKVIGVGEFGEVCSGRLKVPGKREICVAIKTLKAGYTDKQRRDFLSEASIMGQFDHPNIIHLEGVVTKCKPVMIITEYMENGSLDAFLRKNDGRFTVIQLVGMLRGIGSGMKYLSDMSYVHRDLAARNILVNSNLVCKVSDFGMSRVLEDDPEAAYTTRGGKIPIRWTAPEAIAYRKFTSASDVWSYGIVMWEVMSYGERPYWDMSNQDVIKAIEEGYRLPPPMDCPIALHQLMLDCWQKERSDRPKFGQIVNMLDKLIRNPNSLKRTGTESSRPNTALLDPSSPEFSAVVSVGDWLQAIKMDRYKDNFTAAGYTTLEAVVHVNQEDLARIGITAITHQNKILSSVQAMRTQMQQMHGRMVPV
PHKG2, sequence (P15735 whole entry): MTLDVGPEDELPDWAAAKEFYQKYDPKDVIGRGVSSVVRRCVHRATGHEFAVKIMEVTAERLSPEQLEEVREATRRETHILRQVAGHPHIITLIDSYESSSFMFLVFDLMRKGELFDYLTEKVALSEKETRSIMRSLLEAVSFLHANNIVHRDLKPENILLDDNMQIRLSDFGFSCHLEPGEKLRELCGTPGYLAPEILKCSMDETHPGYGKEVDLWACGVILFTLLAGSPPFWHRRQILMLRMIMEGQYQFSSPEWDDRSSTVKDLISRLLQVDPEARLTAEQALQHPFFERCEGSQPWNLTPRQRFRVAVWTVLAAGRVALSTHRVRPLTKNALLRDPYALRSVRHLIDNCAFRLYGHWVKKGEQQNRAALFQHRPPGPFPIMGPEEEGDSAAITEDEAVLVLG
TSSK1B, sequence (Q9BXA7 whole entry): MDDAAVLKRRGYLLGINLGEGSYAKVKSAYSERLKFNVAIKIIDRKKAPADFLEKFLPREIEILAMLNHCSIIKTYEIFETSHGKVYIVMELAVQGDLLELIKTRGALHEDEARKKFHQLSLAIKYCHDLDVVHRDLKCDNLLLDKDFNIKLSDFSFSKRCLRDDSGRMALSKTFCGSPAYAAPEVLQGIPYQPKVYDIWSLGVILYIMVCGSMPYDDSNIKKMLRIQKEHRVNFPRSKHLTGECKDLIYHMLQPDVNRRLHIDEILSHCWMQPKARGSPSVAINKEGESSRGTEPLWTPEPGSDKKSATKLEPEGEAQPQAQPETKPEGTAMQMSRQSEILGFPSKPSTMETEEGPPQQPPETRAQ

CNc1ncc2cc(-c3ccc(-c4cccc(C)n4)cc3Cl)c(=O)n(C[C@H]3OC[C@H](N)CO3)c2n1 [compound 6, G-5555]
Percent Control [1]: 96%
Percent Control [2]: 100%
Percent Control [3]: 15%
Percent Control [4]: 100%
Percent Control [5]: 100%
Percent Control [6]: 100%
Percent Control [7]: 100%
Percent Control [8]: 100%
Percent Control [9]: 100%
Percent Control [10]: 100%
Percent Control [11]: 100%
Percent Control [12]: 41%
Percent Control [13]: 100%
Percent Control [14]: 32%
Percent Control [15]: 1.4%
Percent Control [16]: 26%
Percent Control [17]: 77%
Percent Control [18]: 85%
Percent Control [19]: 96%
Percent Control [20]: 100%
Percent Control [21]: 97%
Percent Control [22]: 86%
Percent Control [23]: 100%
Percent Control [24]: 100%
Percent Control [25]: 90%
Percent Control [26]: 0.8%
Percent Control [27]: 100%
Percent Control [28]: 100%
Percent Control [29]: 100%
Percent Control [30]: 36%
